Experimental findings from patent US20260200905A1, “MICROBIOCIDAL TETRAHYDROISOQUINOLINE DERIVATIVES” (SYNGENTA CROP PROTECTION AG, priority 2022, published 2026) are described below.

Structures are written as SMILES.

The subject of this assay is Mycosphaerella graminicola (Septoria tritici). Nature of the assay: Mycosphaerella graminicola (Septoria tritici) / liquid culture (Septoria blotch). It counts as cell-based. To be noted: Zymoseptoria tritici, growth inhibition photometrically 4 to 5 days after application, read-out: control of Mycosphaerella graminicola. The procedure:
Example B12: Mycosphaerella graminicola (Septoria tritici)/Liquid Culture (Septoria Blotch) Conidia of the fungus from cryogenic storage are directly mixed into nutrient broth (PDB potato dextrose broth). After placing a (DMSO) solution of test compound into a microtiter plate (96-well format), the nutrient broth containing the fungal spores is added. The test plates are incubated at 24° C. and the inhibition of growth is determined photometrically 4 to 5 days after application.
On to `Cc1c(C2CN(C(=O)c3cc(-c4ccc(F)cc4F)on3)Cc3ccccc32)nc(Cl)n1C` (stereo not drawn) [Compound P-16, [4-(2-chloro-1,5-dimethyl-imidazol-4-yl)-3,4-dihydro-1H-isoquinolin-2-yl]-[5-(2,4-difluorophenyl)isoxazol-3-yl]methanone], for which the inhibition of growth at 20 ppm is at least 80%.

Take `Cc1nc(C2CN(C(=O)c3cc(-c4ccc(F)cc4F)on3)Cc3ccccc32)c(Cl)n1C` (stereo not drawn) [Compound P-17, [4-(5-chloro-1,2-dimethyl-imidazol-4-yl)-3,4-dihydro-1H-isoquinolin-2-yl]-[5-(2,4-difluorophenyl)isoxazol-3-yl]methanone]: the inhibition of growth at 20 ppm was at least 80%.

Regarding `Cc1c(C2CN(C(=O)c3cc(-c4ccc(F)cc4)on3)Cc3ccccc32)cc(C#N)n1C` (stereo not drawn) [Compound P-18, 4-[2-[5-(4-fluorophenyl)isoxazole-3-carbonyl]-3,4-dihydro-1H-isoquinolin-4-yl]-1,5-dimethyl-pyrrole-2-carbonitrile], the inhibition of growth at 20 ppm is at least 80%. In the case of `Cc1c(C2CN(C(=O)c3cc(-c4ccc(F)cc4F)on3)Cc3ccccc32)cc(C#N)n1C` (stereo not drawn) [Compound P-20, 4-[2-[5-(2,4-difluorophenyl)isoxazole-3-carbonyl]-3,4-dihydro-1H-isoquinolin-4-yl]-1,5-dimethyl-pyrrole-2-carbonitrile] it was at least 80%. As for `Cn1nc(C2CN(C(=O)c3cc(-c4ccc(F)cc4F)on3)Cc3ccccc32)cc1Br` (stereo not drawn) [Compound P-21, [4-(5-bromo-1-methyl-pyrazol-3-yl)-3,4-dihydro-1H-isoquinolin-2-yl]-[5-(2,4-difluorophenyl)isoxazol-3-yl]methanone], the inhibition of growth at 20 ppm is at least 80%.

As for `Cc1cncc(C2CN(C(=O)c3cc(-c4ccc(F)cc4F)on3)Cc3ccccc32)c1` (stereo not drawn) [Compound P-22, [5-(2,4-difluorophenyl)isoxazol-3-yl]-[4-(5-methyl-3-pyridyl)-3,4-dihydro-1H-isoquinolin-2-yl]methanone], the inhibition of growth at 20 ppm is at least 80%. `Cc1ncc(C2CN(C(=O)c3cc(-c4ccc(F)cc4F)on3)Cc3ccccc32)cc1Cl` (stereo not drawn) [Compound P-23, [4-(5-chloro-6-methyl-3-pyridyl)-3,4-dihydro-1H-isoquinolin-2-yl]-[5-(2,4-difluorophenyl)isoxazol-3-yl]methanone]: the inhibition of growth at 20 ppm is at least 80%.

`O=C(c1cc(-c2ccc(F)cc2F)on1)N1Cc2ccccc2C(c2cnccc2Cl)C1` (stereo not drawn) [Compound P-24, [4-(4-chloro-3-pyridyl)-3,4-dihydro-1H-isoquinolin-2-yl]-[5-(2,4-difluorophenyl)isoxazol-3-yl]methanone]: the inhibition of growth at 20 ppm is at least 80%. Regarding `Cc1nc(C2CN(C(=O)c3cc(-c4ccc(F)cc4F)on3)Cc3ccccc32)no1` (stereo not drawn) [Compound P-25, [5-(2,4-difluorophenyl)isoxazol-3-yl]-[4-(5-methyl-1,2,4-oxadiazol-3-yl)-3,4-dihydro-1H-isoquinolin-2-yl]methanone], the inhibition of growth at 20 ppm is at least 80%.

For the compound `Cc1c(C2CN(C(=O)c3cc(-c4ccccc4)on3)Cc3ccccc32)cc(C#N)n1C` (stereo not drawn) [Compound P-26, 1,5-dimethyl-4-[2-(5-phenylisoxazole-3-carbonyl)-3,4-dihydro-1H-isoquinolin-4-yl]pyrrole-2-carbonitrile], the inhibition of growth at 20 ppm is at least 80%. In the case of `CC1(c2cccnc2)CN(C(=O)c2cc(-c3ccc(F)cc3F)on2)Cc2ccccc21` (stereo not drawn) [Compound P-27, [5-(2,4-difluorophenyl)isoxazol-3-yl]-[4-methyl-4-(3-pyridyl)-1,3-dihydroisoquinolin-2-yl]methanone] it was at least 80%; in that of `Cc1c(C2CN(C(=O)c3nnc(-c4ccc(F)cc4F)s3)Cc3ccccc32)cc(C#N)n1C` (stereo not drawn) [Compound P-28, 4-[2-(5-(2,4-difluorophenyl)-1,3,4-thiadiazole-2-carbonyl]-3,4-dihydro-1H-isoquinolin-4-yl]-1,5-dimethyl-pyrrole-2-carbonitrile], at least 80%. For the compound `Cc1ncc(C2CN(C(=O)c3cc(-c4ccccc4)on3)Cc3ccccc32)cc1Cl` (stereo not drawn) [Compound P-29, [4-(5-chloro-6-methyl-3-pyridyl)-3,4-dihydro-1H-isoquinolin-2-yl]-(5-phenylisoxazol-3-yl)methanone], the inhibition of growth at 20 ppm was at least 80%. In the case of `O=C(c1cc(-c2ccccc2)on1)N1Cc2ccccc2C(c2cnccc2Cl)C1` (stereo not drawn) [Compound P-30, [4-(4-chloro-3-pyridyl)-3,4-dihydro-1H-isoquinolin-2-yl]-(5-phenylisoxazol-3-yl)methanone] it was at least 80%; in that of `Cc1nc(C2CN(C(=O)c3cc(-c4ccccc4)on3)Cc3ccccc32)c(Cl)n1C` (stereo not drawn) [Compound P-31, [4-(5-chloro-1,2-dimethyl-imidazol-4-yl)-3,4-dihydro-1H-isoquinolin-2-yl]-(5-phenylisoxazol-3-yl)methanone], at least 80%; in that of `CC1(c2cccnc2)CN(C(=O)c2cc(-c3ccccc3)on2)Cc2ccccc21` (stereo not drawn) [Compound P-32, [4-methyl-4-(3-pyridyl)-1,3-dihydroisoquinolin-2-yl]-(5-phenylisoxazol-3-yl)methanone], at least 80%. As for `Cn1cnc(C2CN(C(=O)c3cc(-c4ccc(F)cc4F)on3)Cc3ccccc32)n1` (stereo not drawn) [Compound P-33, [5-(2,4-difluorophenyl)isoxazol-3-yl]-[4-(1-methyl-1,2,4-triazol-3-yl)-3,4-dihydro-1H-isoquinolin-2-yl]methanone], the inhibition of growth at 20 ppm is at least 80%. In the case of `O=C(c1cc(-c2ccccc2)on1)N1Cc2ccccc2C(c2ccc(F)nc2)C1` (stereo not drawn) [Compound P-34, [4-(6-fluoro-3-pyridyl)-3,4-dihydro-1H-isoquinolin-2-yl]-(5-phenylisoxazol-3-yl)methanone], the inhibition of growth at 20 ppm is at least 80%. `Cn1cc(C2CN(C(=O)c3cc(-c4ccc(F)cc4F)on3)Cc3ccccc32)nn1` (stereo not drawn) [Compound P-35, [5-(2,4-difluorophenyl)isoxazol-3-yl]-[4-(1-methyltriazol-4-yl)-3,4-dihydro-1H-isoquinolin-2-yl]methanone]: the inhibition of growth at 20 ppm is at least 80%. In the case of `O=C(c1cc(-c2ccc(F)cc2F)on1)N1Cc2ccccc2C(c2cccnn2)C1` (stereo not drawn) [Compound P-36, [5-(2,4-difluorophenyl)isoxazol-3-yl]-(4-pyridazin-3-yl-3,4-dihydro-1H-isoquinolin-2-yl)methanone] it was at least 80%; in that of `Cc1nc(C2CN(C(=O)c3cc(-c4ccc(F)cc4F)on3)Cc3ccccc32)nn1C` (stereo not drawn) [Compound P-39, [5-(2,4-difluorophenyl)isoxazol-3-yl]-[4-(1,5-dimethyl-1,2,4-triazol-3-yl)-3,4-dihydro-1H-isoquinolin-2-yl]methanone], at least 80%.
